In patent US12162888B2, “Carboxamides as ubiquitin-specific protease inhibitors” (Valo Early Discovery, Inc., priority 2018, dated 2024):

target: T1, USP25 (USP25-His6, Boston Biochem E-546) (Homo sapiens, UniProt Q9UHP3); assay: Ubiquitin-Rhodamine 110 Assay for USP25 Activity, Example A-3; type: biochemical; conditions: Ubiquitin-Rhodamine 110 assay, Example A-3; read-out: USP25 A-3 IC50 range
T1 construct: His6 (C); purchased Boston Biochem E-546
T1 sequence (Q9UHP3 1-1055): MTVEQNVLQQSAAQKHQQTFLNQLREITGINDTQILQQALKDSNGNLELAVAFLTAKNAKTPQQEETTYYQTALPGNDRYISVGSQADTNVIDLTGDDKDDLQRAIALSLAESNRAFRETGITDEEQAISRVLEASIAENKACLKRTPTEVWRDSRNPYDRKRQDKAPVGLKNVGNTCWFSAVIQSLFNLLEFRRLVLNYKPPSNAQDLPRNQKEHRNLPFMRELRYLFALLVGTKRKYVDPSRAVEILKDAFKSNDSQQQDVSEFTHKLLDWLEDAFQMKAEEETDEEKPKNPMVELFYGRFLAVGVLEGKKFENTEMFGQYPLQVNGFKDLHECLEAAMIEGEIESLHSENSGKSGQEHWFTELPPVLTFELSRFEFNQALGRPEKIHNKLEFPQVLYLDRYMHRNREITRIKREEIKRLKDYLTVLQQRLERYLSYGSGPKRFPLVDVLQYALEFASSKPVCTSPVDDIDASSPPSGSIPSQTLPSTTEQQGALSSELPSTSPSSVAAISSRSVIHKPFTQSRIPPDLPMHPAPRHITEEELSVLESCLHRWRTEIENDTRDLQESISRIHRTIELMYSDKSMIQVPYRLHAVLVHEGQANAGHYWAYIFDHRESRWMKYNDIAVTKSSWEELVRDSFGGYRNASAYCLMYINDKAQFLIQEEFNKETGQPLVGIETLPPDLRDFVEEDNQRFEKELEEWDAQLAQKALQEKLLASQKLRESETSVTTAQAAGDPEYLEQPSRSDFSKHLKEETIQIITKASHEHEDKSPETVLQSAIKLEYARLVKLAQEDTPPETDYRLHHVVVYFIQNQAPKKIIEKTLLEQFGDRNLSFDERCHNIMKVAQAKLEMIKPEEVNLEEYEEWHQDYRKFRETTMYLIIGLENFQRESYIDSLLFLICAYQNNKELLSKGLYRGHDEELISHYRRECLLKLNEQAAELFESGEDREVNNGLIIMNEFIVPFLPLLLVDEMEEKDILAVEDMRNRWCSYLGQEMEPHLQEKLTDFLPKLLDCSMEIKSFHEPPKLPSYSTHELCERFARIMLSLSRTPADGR
How it was run: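 USP25-His6 ([…] final as stated) preincubated 30 min with compound (10-point, 25 μM to 1.3 nM), then Ub-Rh110 at 25 nM (<<Km) added in pH 8.0 Tris buffer with BME, BGG and Triton X-100. Reaction stopped after 45 min at room temperature with 10 mM citric acid; fluorescence read at 485/535 nm.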

Q: For `Cc1nc2sc(C(=O)N[C@H]3CCc4cc(N5CCNCC5)ccc4C3)c(N)c2s1` (single isomer, unassigned) [Example 11-33], which IC50 is on record?
A: The IC50 was 200 to 2000 nM.

Q: For `Cc1ccc2c(N)c(C(=O)N[C@H]3COc4cc(N5C[C@H](CF)[C@H](N)C5)ccc4C3)sc2n1` (single isomer, unassigned) [Example 424], which IC50 is on record?
A: The IC50 was 200 to 2000 nM.

Q: `Cc1cnc2c(N)c(C(=O)N[C@@H]3CCc4cc(N5C[C@H]6C[C@@H]5CN6)ccc4C3)sc2n1` (single isomer, unassigned) [Example 11-32] was tested. Which IC50 did it give?
A: Its IC50 is 200 to 2000 nM.

Q: With `Cc1ccc2c(N)c(C(=O)N[C@H]3COc4cc(N5C[C@H]6CC[C@@H]5CN6)ncc4C3)sc2n1` [Example 76, N-((R)-7-((1R,4R)-2,5-diazabicyclo[2.2.2]octan-2-yl)-3,4-dihydro-2H-pyrano[3,2-c]pyridin-3-yl)-3-amino-6-methylthieno[2,3-b]pyridine-2-carboxamide] as the molecule, how does the IC50 read?
A: The IC50 was 50 to 200 nM.

Q: How did the IC50 turn out when `COC[C@@]1(C)CN(c2ccc3c(n2)CC[C@H](NC(=O)c2sc4nc(C)ccc4c2N)C3)C[C@H]1N` [Example 343, 3-amino-N-[(6S)-2-[(3S,4S)-4-amino-3-(methoxymethyl)-3-methylpyrrolidin-1-yl]-5,6,7,8-tetrahydroquinolin-6-yl]-6-methylthieno[2,3-b]pyridine-2-carboxamide] was run?
A: The IC50 was 200 to 2000 nM.

Q: `Cc1ccc2c(N)c(C(=O)N[C@@H]3CCc4nc(N5C[C@H](CF)[C@H](N)C5)ncc4C3)sc2n1` [Example 446, 3-amino-N-[(6R)-2-[(3S,4S)-3-amino-4-(fluoromethyl)pyrrolidin-1-yl]-5,6,7,8-tetrahydroquinazolin-6-yl]-6-methylthieno[2,3-b]pyridine-2-carboxamide] was tested. Which IC50 did it give?
A: Its IC50 is greater than 2000 nM.

Q: With `Cc1ccc2c(N)c(C(=O)N[C@@H]3CCc4nc(N5C[C@@H](CF)[C@@H](N)C5)ncc4C3)sc2n1` [Example 445, 3-amino-N-[(6R)-2-[(3R,4R)-3-amino-4-(fluoromethyl)pyrrolidin-1-yl]-5,6,7,8-tetrahydroquinazolin-6-yl]-6-methylthieno[2,3-b]pyridine-2-carboxamide] as the molecule, how does the IC50 read?
A: The IC50 was greater than 2000 nM.

Q: Which IC50 does the source give for `CN[C@H]1CCN(c2ccc3c(c2)CC[C@H](NC(=O)c2sc4nc(C)cnc4c2N)C3)C1` (single isomer, unassigned) [Example 11-25] here?
A: Its IC50 is 200 to 2000 nM.

Q: For `Cc1ccc2c(N)c(C(=O)N[C@@H]3CCc4cc(N5CCNCC5)ccc4C3)sc2n1` (single isomer, unassigned) [Example 11-22], which IC50 is on record?
A: Its IC50 is 200 to 2000 nM.

Q: How did the IC50 turn out when `Cc1cnc2c(N)c(C(=O)N[C@H]3CCc4cc(N5CCNCC5)cc(F)c4C3)sc2n1` (single isomer, unassigned) [Example 11-38] was run?
A: The IC50 was 200 to 2000 nM.

Q: How did the IC50 turn out when `CN[C@H]1CCN(c2ccc3c(c2)CC[C@@H](NC(=O)c2sc4nc(C)cnc4c2N)C3)C1` (single isomer, unassigned) [Example 11-26] was run?
A: Its IC50 is greater than 2000 nM.

Q: How did the IC50 turn out when `CN[C@@H]1CN(c2ccc3c(n2)CC[C@H](NC(=O)c2sc4nc(C)ccc4c2N)C3)C[C@@H]1CF` [Example 442, 3-amino-N-[(6S)-2-[(3S,4S)-3-(fluoromethyl)-4-(methylamino)pyrrolidin-1-yl]-5,6,7,8-tetrahydroquinolin-6-yl]-6-methylthieno[2,3-b]pyridine-2-carboxamide] was run?
A: Its IC50 is greater than 2000 nM.

Q: Which IC50 does the source give for `Cc1ccc2c(N)c(C(=O)N[C@H]3COc4cc(N5CCNCC5)ccc4[C@H]3C)sc2n1` (single isomer, unassigned) [Example 11-15] here?
A: The IC50 was greater than 2000 nM.

Q: How did the IC50 turn out when `Cc1ccc2c(N)c(C(=O)N[C@H]3COc4cc(N5C[C@H](N)[C@@]6(CCOC6)C5)ccc4C3)sc2n1` (single isomer, unassigned) [Example 439] was run?
A: Its IC50 is 200 to 2000 nM.

Q: Which IC50 does the source give for `CCn1ccc2cc(C(=O)N[C@H]3CCc4nc(N5C[C@@H](COC)[C@@H](N)C5)ccc4C3)cnc21` (single isomer, unassigned) [Example 400] here?
A: The IC50 was greater than 2000 nM.

Q: `Cc1ccc2c(N)c(C(=O)N[C@H]3CCc4nc(N5C[C@@H](N)[C@]6(CCOC6)C5)ccc4C3)sc2n1` [Example 438, 3-amino-N-[(6S)-2-[(5S, 9S)-9-amino-2-oxa-7-azaspiro[4.4]nonan-7-yl]-5,6,7,8-tetrahydroquinolin-6-yl]-6-methylthieno[2,3-b]pyridine-2-carboxamide] was tested. Which IC50 did it give?
A: The IC50 was greater than 2000 nM.

Q: With `[2H]C1([2H])c2c(F)cc(N3CCNCC3)cc2OC[C@@H]1NC(=O)c1sc2nc(C)ccc2c1N` (single isomer, unassigned) [Example 33-1] as the molecule, how does the IC50 read?
A: Its IC50 is 200 to 2000 nM.

Q: For `Cc1nc2sc(C(=O)N[C@H]3CCc4c(C#N)c(N5CC6CCC(C5)N6)cc(F)c4C3)c(N)c2s1` (single isomer, unassigned) [Example 14-21], which IC50 is on record?
A: The IC50 was 50 to 200 nM.

Q: How did the IC50 turn out when `CO[C@H]1CN(c2ccc3c(c2)OC[C@H](NC(=O)c2sc4nc(C)cnc4c2N)C3)C[C@@H]1N` [Example 117] was run?
A: The IC50 was 200 to 2000 nM.

Q: With `CN[C@H]1CN(c2ccc3c(n2)CC[C@H](NC(=O)c2sc4nc(C)ccc4c2N)C3)C[C@H]1CF` [Example 441, 3-amino-N-[(6S)-2-[(3R,4R)-3-(fluoromethyl)-4-(methylamino)pyrrolidin-1-yl]-5,6,7,8-tetrahydroquinolin-6-yl]-6-methylthieno[2,3-b]pyridine-2-carboxamide] as the molecule, how does the IC50 read?
A: The IC50 was greater than 2000 nM.

Q: `Cc1ccc2c(N)c(C(=O)N[C@@H]3COc4cc(N5CCNCC5)ccc4[C@@H]3C)sc2n1` (single isomer, unassigned) [Example 11-18] was tested. Which IC50 did it give?
A: Its IC50 is 200 to 2000 nM.

same assay, conditions: biochemical IC50 range, Ubiquitin-Rhodamine 110 assay, Example A-3; read-out: USP25 A-3

Q: Which IC50 does the source give for `Cc1ccc2c(N)c(C(=O)N[C@H]3COc4cc(N5C[C@H](N)[C@@](C)(CF)C5)ccc4C3)sc2n1` [Example 659, 3-amino-N-[(3R)-7-[(3S,4R)-4-amino-3-(fluoromethyl)-3-methylpyrrolidin-1-yl]-3,4-dihydro-2H-1-benzopyran-3-yl]-6-methylthieno[2,3-b]pyridine-2-carboxamide] here?
A: Its IC50 is 50 to 200 nM.

Q: For `Cc1ccc2c(N)c(C(=O)N[C@H]3COc4cc(N5C[C@@H](N)[C@@](C)(CF)C5)ccc4C3)sc2n1` [Example 660, 3-amino-N-[(3R)-7-[(3S,4S)-4-amino-3-(fluoromethyl)-3-methylpyrrolidin-1-yl]-3,4-dihydro-2H-1-benzopyran-3-yl]-6-methylthieno[2,3-b]pyridine-2-carboxamide], which IC50 is on record?
A: Its IC50 is 1 to 50 nM.

Q: `Cc1ccc2c(N)c(C(=O)N[C@H]3COc4cc(N5C[C@H](N)[C@]6(CCOC6)C5)ccc4C3)sc2n1` [Example 656, 3-amino-N-[(3R)-7-[(5S,9R)-9-amino-2-oxa-7-azaspiro[4.4]nonan-7-yl]-3,4-dihydro-2H-1-benzopyran-3-yl]-6-methylthieno[2,3-b]pyridine-2-carboxamide] was tested. Which IC50 did it give?
A: Its IC50 is 200 to 2000 nM.

Q: `CN[C@@H]1CN(c2ccc3c(c2)OC[C@H](NC(=O)c2sc4nc(C)ccc4c2N)C3)C[C@H]1CF` [Example 663, 3-amino-N-[(3R)-7-[(3R,4S)-3-(fluoromethyl)-4-(methylamino)pyrrolidin-1-yl]-3,4-dihydro-2H-1-benzopyran-3-yl]-6-methylthieno[2,3-b]pyridine-2-carboxamide] was tested. Which IC50 did it give?
A: The IC50 was 50 to 200 nM.

Q: How did the IC50 turn out when `O=C(N[C@H]1COc2cc(N3CCNCC3)ccc2C1)c1ccc(NCc2cccc(Cl)c2Cl)nc1` [Example 699, 6-{[(2,3-dichlorophenyl)methyl]amino}-N-[(3R)-7-(piperazin-1-yl)-3,4-dihydro-2H-1-benzopyran-3-yl]pyridine-3-carboxamide] was run?
A: The IC50 was 1 to 50 nM.

Q: Which IC50 does the source give for `COC1CN(c2ccc3c(c2)CC[C@H](NC(=O)c2sc4nc(C)cnc4c2N)C3)CC1N` (stereo in doubt) [Example 130, 7-amino-N-[(2S)-6-[(3S,4S)-3-amino-4-methoxypyrrolidin-1-yl]-1,2,3,4-tetrahydronaphthalen-2-yl]-3-methylthieno[2,3-b]pyrazine-6-carboxamide] here?
A: The IC50 was 200 to 2000 nM.

Q: `CO[C@H]1CN(c2ccc3c(c2)CC[C@H](NC(=O)c2sc4nc(C)ccc4c2N)C3)C[C@H]1N` [Example 144, 3-amino-N-[(2S)-6-[(3R,4S)-3-amino-4-methoxypyrrolidin-1-yl]-1,2,3,4-tetrahydronaphthalen-2-yl]-6-methylthieno[2,3-b]pyridine-2-carboxamide] was tested. Which IC50 did it give?
A: Its IC50 is 200 to 2000 nM.

Q: How did the IC50 turn out when `O=C(N[C@H]1COc2cc(N3CCNCC3)ccc2C1)c1ccc(NCc2cccc3cn[nH]c23)nc1` [Example 698, 6-{[(1H-indazol-7-yl)methyl]amino}-N-[(3R)-7-(piperazin-1-yl)-3,4-dihydro-2H-1-benzopyran-3-yl]pyridine-3-carboxamide] was run?
A: Its IC50 is 200 to 2000 nM.
